In test [1] the test system is HepG2 cells. In words: Cell proliferation assay (CCK-8), HepG2. The test is classed as cell-based, human. As to the method: (§1) The human HCC cell lines QGY-7703, SMMC-7721 and HepG2 and the liver cell line QSG-7701 were supplied by the Cell Resource Center, Institute of Life Sciences, Chinese Academy of Medical Science. QGY-7703, SMMC-7721 and QSG-7701 cells were cultured in 1640 medium (Gibco), and HepG2 cells were cultured in DMEM medium (Gibco) at 37 °C in moist air supplemented with 5% CO2. All media were supplemented with 10% fetal bovine serum (FBS) and 100 Units/mL of penicillin/streptomycin.
(§2) The cell viability assay was performed as previously reported using a Cell Counting Kit-8 (CCK-8; Dojindo, Kumamoto, Japan)[33][34]. The relative cell viability was presented as % inhibition and calculated using the following formula: […]

The subject of test [2] is HepG2 cells. In words: Wound healing (migration) assay. The conditions noted are these: 10 μM, 24 h. The test is classed as cell-based, human. As to the method:
Cell migration and invasion potencies were studied using wound healing and Matrigel invasion assays. The wound healing assay was performed by scratching the cell surface with a 10 μL pipette tip. Then, the cells were treated with compound 7 and ISJ (10 μM) and incubated for 24 h before being photographed under a microscope (DMI3000 B, Leica). Wound closure was evaluated using ImageJ software. Invasion through a Matrigel-coated filter was measured in transwell chambers (Corning Costa) as described previously, with minor modifications. Briefly, HepG2 Cells (2 × 10^5/well) were suspended in serum-free medium and added to the upper chamber of the Matrigel plate. FBS (10%) was used as the chemoattractant in the lower chamber. After incubation for 24 h, the non-invading cells were removed from the upper surface of the insert membrane with a cotton swab. The invading cells were fixed with methanol and stained with Giemsa (Sigma). Cells in five randomly selected fields were photographed, and the numbers of cells that crossed the membrane were counted.

In test [3] the test system is HepG2 cells. In words: Apoptosis assay, Annexin V-FITC/PI flow cytometry. The test is classed as cell-based, human. The settings on record: 48 h. As to the method:
To further explore the potential mechanisms of the antiproliferative effects induced by compound 7 and ISJ, Annexin V-FITC/PI double staining was performed to quantify cellular apoptosis by flow cytometry. HepG2 cells were cultured for 48 h in the absence or presence of compound 7 or ISJ at different concentrations (5 or 15 μM).
HepG2 cells were seeded in six-well plates (5 × 10^5 cells/mL) for 24 h and then treated with various amounts of the compounds or 1% DMSO (as control). After 48 h, the cells floating in the medium were collected, and the adherent cells were detached with 0.05% trypsin, washed twice with cold PBS, and centrifuged at 1000 rpm for 5 min at 4 °C. Subsequently, HepG2 cells were gently resuspended in the binding buffer. Thereafter, the cells were stained using the Annexin V-FITC/PI apoptosis detection kit (BD Biosciences, San Jose, CA, USA). After incubation at room temperature for 15 min in the dark, the apoptotic cells were immediately analyzed by flow cytometry (FACS Calibur).
(In flow cytometry, cells or beads pass a laser one at a time.)

A further test deals with SMMC-7721 cells. The test is described as follows: Cell proliferation assay (CCK-8), SMMC-7721. The test is classed as cell-based, human. The settings on record: mean ± SD, at least three independent experiments. The protocol: as §1, §2
In another test the test system is cPKC and nPKC. In words: Pull-down competition with free ISJ. The test is classed as binding, human. The settings on record: free ISJ 20 μM, HepG2 lysates. The text has this:
To identify whether ISJ and compound 7 target PKC in cells, we performed pull-down experiments using ISJ- and compound 7-coupled Sepharose beads with HepG2 cell lysates. Endogenous cPKC (PKCα) and nPKC (PKCδ, PKCε and PKCμ) in HepG2 lysates were pulled down by ISJ-coupled CNBr-activated Sepharose 4B beads (Fig. 5a).
Figure 5 Direct interactions between ISJ and PKC isotypes. (a) Immobilized on CNBr-activated Sepharose 4B beads, ISJ directly bound to cPKC (PKCα) and nPKC (PKCδ, PKCε and PKCμ). (b) HepG2 cell lysates were incubated with ISJ-conjugated Sepharose 4B beads or with DMSO-conjugated control beads in the absence or presence of free ISJ (20 μM), and the bead-captured proteins were subjected to analysis by immunoblotting.
The control beads were prepared by incubating the beads with DMSO. Proteins (500 μg) from lysed HepG2 cells were mixed with either the control beads, compound 7-coupled beads, or ISJ-coupled beads (100 μL) in reaction buffer [50 mM Tris (pH 7.5), 5 mM EDTA, 150 mM NaCl, 1 mM DTT, 0.01% NP-40, 2 μg/mL BSA, 1 mM PMSF, 1% protease inhibitor mixture]. After incubation with gentle rocking overnight at 4 °C, the beads were washed 5 times with washing buffer [50 mM Tris (pH 7.5), 5 mM EDTA, 150 mM NaCl, 1 mM DTT, 0.01% NP-40, 1 mM PMSF], and binding was visualized by western blotting.

For test [4], the system named is phosphorylated c-Raf, MEK1/2 and ERK1/2. The test is described as follows: Western blot of MAPK phosphorylation, HepG2. The class given is cell-based, human. The conditions noted are these: HepG2, 24 h. As to the method: Additional PKC targeting effects involved in the early response of major MAPK phosphorylation and the late response of HCC cell invasion and apoptosis were investigated. After 24 h of treatment with ISJ at the indicated concentrations, the total protein lysates from HCC cells were analyzed (Fig. 6). ISJ inhibited the phosphorylated, activated forms of c-Raf, MEK1/2 and ERK1/2 in the MAPK signaling pathway in both HepG2 and QGY-7703 cells (Fig. 6a). […] In contrast, E-cadherin expression was elevated, specifically at the highest concentration of ISJ (20 μM) (Fig. 6b). In addition, we analyzed several representative apoptotic proteins, including cleaved PARP (c-PARP), p53 and p21. […] These findings support our hypothesis that ISJ restrains HCC cell metastasis and induces HCC cell apoptosis by specifically inhibiting PKC.
The total membrane and cytosolic proteins were extracted using a Membrane and Cytosol Protein Extraction Kit (Beyotime). Extracted proteins from cells or animal tissues were separated by SDS-PAGE and transferred to polyvinylidene difluoride (PVDF) membranes (Bio-Rad). The PVDF membranes were blocked with 5% nonfat milk and incubated with primary antibodies overnight, followed by incubation with a donkey anti-rabbit or anti-mouse secondary antibody (IRDye 800, LI-COR, Biosciences). […] The intensity was quantitative with Quantity One software (Bio-Rad). […]

As to Isojacareubin [ISJ], the “Inhibitory Ratio (%) HepG2” value with HepG2 cells [1] (50 μM) is given as 91.54%. Further, the IC50 in the test with HepG2 cells [1] (mean ± SD, at least three independent experiments) came to 2.45 ± 0.23 µM; in the test with SMMC-7721 cells it was 1.63 ± 0.05 µM. The “decrease of HepG2 cell migration compared to control” value with HepG2 cells [2] is reported as 77.8%. The “number of apoptotic cells compared to the control group” value in the test with HepG2 cells [3] (5 μM) is on record as “did not alter”. Further, the “percentage of apoptotic cells” value in the test with HepG2 cells [3] (15 μM) is given as “increased significantly”. For the same substance, the “amounts of cPKC and nPKC captured by ISJ-coupled 4B beads in presence of free compound” value in the test on cPKC and nPKC was “obvious decline”. Also, in test [4], the “phosphorylated, activated forms of c-Raf, MEK1/2 and ERK1/2” value is listed as “inhibited”.

The IC50 is the point on the concentration scale where inhibition reaches its midpoint. A low value points to greater potency in that assay.
